For one assay, the target named is T1, human CFTR (Homo sapiens, UniProt P13569).
T1 construct: host or cells: CHO
The experiment in a line: IonWorks Barracuda electrophysiology, CFTR chloride current in CHO cells. As to conditions: for effect on CFTR chloride current: 10 µM compound, CHO CFTR. Format: cell-based. An excerpt:
HEK293 cells stably expressing the human TMEM16A (abc) variant and CHO cells expressing the human CFTR gene were from ChanTest. The IonWorks Barracuda (IWB) procedure and data provided are from outsourced studies performed at ChanTest (Charles River Discovery, Cleveland, OH, United States) who were blinded as to the identity of the test articles or compounds provided by Amgen.
For measuring compound effects on CFTR chloride currents, compounds were serially diluted in HEPES-buffered physiological saline to 2X final concentration allowing for an 8-point dose-response analysis. Test article concentrations were applied to naïve cells (n = 4, where n = the number of replicate wells/concentration) via steel needles, where each application will consist of addition of 20 μl of 2X concentrated test article solution to a final 40 μl volume in the extracellular well of the Population Patch ClampTM (PPC) planar electrode. After mixing (three times), duration of exposure to compound is at least 5 min. Final solutions contain 0.3% DMSO. […] The current is measured using a pulse pattern consisting of a voltage step to +60 mV, 100 ms duration; voltage ramp from +60 to −120 mV, 1000 ms; step to −120 mV, 200 ms; and step to 0 mV, 200 ms; from holding potential, −30 mV. Current amplitudes were measured at the voltage step to 0 mV. The recording procedure was as follows: extracellular buffer is loaded into the PPC plate wells (11 μl per well). Cell suspension was pipetted into the wells (9 μl per well) of the PPC planar electrode. After establishment of a whole-cell configuration via amphotericin patch perforation similar to that described earlier, membrane currents were recorded using the patch clamp amplifier in the IonWorks^TM Barracuda system. Two recordings (scans) were then performed, one scan before and a second scan 5 min after test article (TA) application. […] Data acquisition and analyses were performed using the IonWorks Barracuda^TM system operation software (version 2.0.2). The decrease in current amplitude after test article application was used to calculate the percent block relative to control. […] Inhibition effect was calculated as: % Inhibition = (1 – ITA/IBaseline) × 100%, where IBaseline and ITA were the currents measured in control (before addition of a test article) and in the presence of a test article, respectively.
In general terms: The patch-clamp technique gives a direct electrical read-out from membranes.

The next assay relates to primary human ASM cells. As to the kind of experiment: Eact-induced calcium flux in primary human ASM cells. As to conditions: Eact 10 M (so in the source), read-out: IC50 block of Eact calcium flux. The format is cell-based. How it is done:
1.1 Measuring antagonist effects on bronchial smooth muscle cell (BSMC) pro-contractile calcium flux.
Human BSMCs were obtained from Lonza, resuspended, cultured and serum starved for 24 hours as described for the histamine membrane potential assay. Compounds and dilutions were prepared in same manner, except they were serially diluted in Assay Buffer (2 mM CaCl2, 1 mM MgCl2, 4.5 mM KCl, 155 mM NaCl, 5 mM HEPES, 10 mM glucose, pH7.4) to 4X the final concentration. A Calcium Indicator Working Solution (10 ml) was prepared by adding 1ml BD PBX Signal Enhancer (Cat# 51 -9006254) and 10 µl of BD Calcium Indicator (BD Cat# 850000 resuspended in 100% DMSO) to 9 ml Assay Buffer. Following serum starvation of the BSMCs, culture media was aspirated off and 50µl of Calcium Indicator Working Solution was added t o each well of microtiter plate. Twenty-five microliters of the 4X serially diluted compounds were then added and cells were incubated with compounds for 30 minutes at room temperature. Twenty -five microliters of a 4X histamine or methacholine solution (where 1X reflects EC 80-EC100 concentration from earlier validation of aliquot of cells from same donor) was then added and fluorescence changes were measured by a FLIPR-Tetra or internal FlashFluor instrument. In some experiments the TMEM16A opener, Eact, was used in place of histamine or methacholine.
(In general: Calcium flux is commonly read through the fluorescence of an indicator in the cells.)

The test system of assay [1] is human bronchial smooth muscle cells. The experiment in a line: Histamine-induced depolarization of human bronchial smooth muscle cells (FLIPR membrane potential). Format: cell-based. As to conditions: donor 199524, 1 M histamine (so in the source), read-out: EC50 inhibition of histamine-induced depolarization (converted).
Assay [2] relates to Wnt/β-catenin transcription. As to conditions: cited from earlier work.
The test system of a further assay is human bronchial rings. The experiment in a line: Wire myograph bronchodilation of carbachol pre-contracted human bronchial rings (Amgen). As for the experimental part:
Bronchodilator studies using human bronchial rings (Figure 5E–G and Supplementary Figure 38) used the same instruments and reagents described earlier for studies on mouse tracheal rings.
Non-transplantable human lungs were obtained through the International Institute for the Advancement of Medicine, IIAM (Edison, NJ, United States) from non-smoking donors who had been ventilated for <3 days with acceptable blood gasses and used within 24 h of cross-clamp time.
Human 4th order bronchial rings were isolated, sliced into 2 mm long rings and then mounted individually in chambers of wire myographs containing 6 ml room temperature PSS per chamber. […] Bronchial rings are allowed to equilibrate in PSS while chambers are warmed to 37°C. […] The rings were then equilibrated for additional 40–60 min, changing buffer every 15–20 min. Tension was adjusted if it dropped below 9.8 mN. Airway rings were “woken up” by exposing to pre-warmed, aerated KPSS and allowing rings to reach plateau of constriction, followed by washing rings four times with PSS. This procedure was repeated two additional times.
Airway contraction response was then assessed by treating with increasing doses of the contractant, carbachol (10 nM to 10 μM), waiting for response plateaus (at least 5 min between additions).
At the end of each CCRC, rings were fully relaxed by addition of 2.2 mM theophylline. One hundred percent contraction was calculated by subtracting the stable tension remaining in the airway ring after theophylline addition from the tension achieved after addition of EC75 carbachol while 100% relaxation is the net tension remaining after theophylline addition. Dose response curves and EC50 values for bronchodilation were determined in GraphPad Prism.

[3] abbreviates: 20 μM forskolin, IonWorks Barracuda, read-out: CFTR Chloride Current (IC50).
Where [4] appears, read: Homo sapiens, EC75 carbachol, 4th order bronchi, 5 μM indomethacin, read-out: EC50 relaxing carbachol precontracted human bronchial rings.
Where [5] appears, read: Homo sapiens, supplement, 5 M indomethacin (so in the source), read-out: EC50 relaxation of carbachol pre-contracted human bronchial rings.
Setting [6] is: ref Mook et al. (2015), read-out: Mook et al. Wnt/β-catenin TopFlash (IC50).

In general, EC50 refers to the concentration needed to bring the measured effect to its halfway point.

Where two headings read alike, the source gives them in different places.

T1 sequence (P13569 whole entry): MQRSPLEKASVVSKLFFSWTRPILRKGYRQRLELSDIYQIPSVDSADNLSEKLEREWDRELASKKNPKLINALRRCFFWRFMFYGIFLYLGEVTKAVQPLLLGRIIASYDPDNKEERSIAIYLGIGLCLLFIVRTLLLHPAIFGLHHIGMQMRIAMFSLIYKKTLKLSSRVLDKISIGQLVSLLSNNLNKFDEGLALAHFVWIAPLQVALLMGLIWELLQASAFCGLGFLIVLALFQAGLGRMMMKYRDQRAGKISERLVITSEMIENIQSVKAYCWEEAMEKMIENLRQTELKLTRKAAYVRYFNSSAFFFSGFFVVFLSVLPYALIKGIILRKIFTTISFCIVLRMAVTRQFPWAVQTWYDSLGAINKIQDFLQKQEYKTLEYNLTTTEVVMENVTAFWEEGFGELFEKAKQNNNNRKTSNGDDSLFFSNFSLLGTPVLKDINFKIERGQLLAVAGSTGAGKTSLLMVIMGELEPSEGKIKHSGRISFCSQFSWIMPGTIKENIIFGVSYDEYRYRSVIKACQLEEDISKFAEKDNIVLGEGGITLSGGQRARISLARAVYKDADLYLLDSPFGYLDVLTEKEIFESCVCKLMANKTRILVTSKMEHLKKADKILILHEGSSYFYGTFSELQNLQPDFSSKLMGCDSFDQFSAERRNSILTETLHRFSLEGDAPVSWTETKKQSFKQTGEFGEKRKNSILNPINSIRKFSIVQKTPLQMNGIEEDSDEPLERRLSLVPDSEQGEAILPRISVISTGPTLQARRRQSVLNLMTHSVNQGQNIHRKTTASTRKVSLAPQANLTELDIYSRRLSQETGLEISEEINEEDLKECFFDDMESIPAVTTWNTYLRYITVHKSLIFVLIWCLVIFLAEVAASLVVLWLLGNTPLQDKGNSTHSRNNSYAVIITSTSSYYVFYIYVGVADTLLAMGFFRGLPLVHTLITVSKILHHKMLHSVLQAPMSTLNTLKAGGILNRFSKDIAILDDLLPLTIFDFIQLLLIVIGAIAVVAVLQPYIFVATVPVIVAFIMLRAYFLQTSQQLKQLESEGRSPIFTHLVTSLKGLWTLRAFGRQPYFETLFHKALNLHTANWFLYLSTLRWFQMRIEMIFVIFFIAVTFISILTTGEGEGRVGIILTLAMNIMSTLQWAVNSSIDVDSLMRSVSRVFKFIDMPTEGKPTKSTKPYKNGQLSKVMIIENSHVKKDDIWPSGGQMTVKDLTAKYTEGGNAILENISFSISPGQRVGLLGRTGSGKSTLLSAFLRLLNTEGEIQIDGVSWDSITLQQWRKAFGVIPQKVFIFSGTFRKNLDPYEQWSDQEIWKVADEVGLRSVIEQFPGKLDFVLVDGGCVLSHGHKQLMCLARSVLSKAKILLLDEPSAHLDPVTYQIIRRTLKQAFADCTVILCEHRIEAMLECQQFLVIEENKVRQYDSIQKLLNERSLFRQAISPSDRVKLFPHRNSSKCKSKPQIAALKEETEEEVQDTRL

For `COc1cc(Nc2ccc([N+](=O)[O-])cc2C(=O)O)cc2ccccc12` [MONNA], on human CFTR (setting [3]), the IC50 was 19 µM. Besides, the “effect on cAMP-induced CFTR chloride current” value on human CFTR (IonWorks Barracuda) is given as “reduced”.
As to `CCc1c(C)nc(SCC(=O)Nc2nc(-c3ccc(OC)cc3)cs2)[nH]c1=O` [T16Ainh-A01], the IC50 is 15 µM with primary human ASM cells and greater than 30 µM on human CFTR (setting [3]). The EC50 in assay [1] is 3.9 µM.
In the case of `O=C(Nc1ccc([N+](=O)[O-])cc1Cl)c1cc(Cl)ccc1O` [Niclosamide], in assay [2] (TOPFlash reporter assay, ref Mook et al., 2015, read-out: IC50 inhibition of Wnt/β-catenin transcription), the IC50 was 0.34 µM. Also, at human CFTR, the “percent of inhibition (POI) of the forskolin-induced CFTR current” value (from here on “percent of inhibition”) is given as less than 20% and the “effect on CFTR chloride current” value is recorded as “no significant effects”. The IC50 on human CFTR (setting [3]) was greater than 30 µM. The “effect on cAMP-induced CFTR chloride current” value on human CFTR (IonWorks Barracuda) is “inactive”. In addition, in the assay with human bronchial rings (setting [4]), the concentration for a half-maximal effect (EC50) turned out to be 0.73 µM.
For `N#Cc1c(C(F)(F)F)cc(O)n2c1nc1ccccc12` [1PBC], the IC50 on human CFTR (setting [3]) is greater than 30 µM. In addition, the “effect on cAMP-induced CFTR chloride current” value on human CFTR (IonWorks Barracuda) is “inactive”. Further, the EC50 amounted to 0.91 ± 0.2 µM with human bronchial rings (setting [4]) and 0.761 µM in the assay on human bronchial rings (setting [5]).
Take `CCc1oc2ccccc2c1C(=O)c1cc(Br)c(O)c(Br)c1` [Benzbromarone]: the IC50 in the assay on primary human ASM cells turned out to be 2 µM; against human CFTR it was 5.2 µM. On human CFTR (IonWorks Barracuda), the “effect on cAMP-induced CFTR chloride current” value is on record as “reduced”. For the same molecule, the EC50 in the assay on human bronchial rings (setting [4]) is 2.08 ± 1.95 µM; with human bronchial rings (setting [5]), 3.45 µM; in assay [1], 9.9 µM.
Turning to `CC(C)(C)C1CCc2c(sc(NC(=O)c3ccco3)c2C(=O)O)C1` (centres unmarked) [CaCCinh-A01], the IC50 is 7 µM with primary human ASM cells and 10.1 µM on human CFTR (setting [3]). Besides, the “effect on cAMP-induced CFTR chloride current” value on human CFTR (IonWorks Barracuda) is listed as “reduced”. Also, the EC50 with human bronchial rings (setting [4]) is 9.24 µM.
Turning to `Oc1ccc(Cl)cc1Cc1cc(Cl)ccc1O` [Dichlorophen], the IC50 in the assay with primary human ASM cells was determined as 57 µM. Besides, the EC50 was 10.6 ± 12 µM with human bronchial rings (EC75 carbachol, 4th order bronchi, 5 μM indomethacin, read-out: EC50 relaxing carbachol precontracted human bronchial rings); 19.1 µM in the assay with human bronchial rings (setting [4]); 4.1 µM in assay [1].
Consider `O=C(Nc1ccc(Cl)cc1)c1cc(Cl)ccc1O` [Cpd 5], for which, in assay [2] (setting [6]), the IC50 is 1.3 µM.
On to `O=C(O)c1cccnc1Nc1cccc(C(F)(F)F)c1` [Niflumic Acid], for which, at human CFTR (setting [3]), the IC50 was greater than 30 µM. Moreover, the EC50 in the assay on human bronchial rings (setting [4]) turned out to be 14.4 ± 0.76 µM; with human bronchial rings (setting [5]), 14.9 µM.
As to `COc1cc([N+](=O)[O-])ccc1NC(=O)c1cc(Cl)c2ccccc2c1O` [Cpd 4], on human CFTR, the “percent of inhibition” value is recorded as less than 20% and the “effect on CFTR chloride current” value is reported as “no significant effects”. Moreover, the IC50 at human CFTR (setting [3]) was greater than 30 µM. In addition, the “effect on cAMP-induced CFTR chloride current” value at human CFTR (IonWorks Barracuda) was “inactive”. The EC50 in the assay with human bronchial rings (setting [4]) was determined as 1.61 µM.
In the case of `O=C(Nc1ccc([N+](=O)[O-])cc1)c1cc(Cl)ccc1O` [Cpd 2], the IC50 in assay [2] (setting [6]) is 0.99 µM. Besides, the “percent of inhibition” value on human CFTR is given as less than 20%. Also, at human CFTR (IonWorks Barracuda), the “effect on cAMP-induced CFTR chloride current” value is “inactive”.

(Values after article PMC6382696, “Drug Repurposing: The Anthelmintics Niclosamide and Nitazoxanide Are Potent TMEM16A Antagonists That Fully Bronchodilate Airways” (Frontiers in Pharmacology, 2019).)
